Measured values: PubChem BioAssay AID256 (DTP/NCI, 2004)
“And” between values parts separate entries of the source, which are not always exact repeats. Identical values can stand only once. Inconclusive results and toxic doses are left out.

System: CD2F1 mice, L1210 leukemia ip, survival T/C
Assay: NCI In Vivo Anticancer Drug Screen. Data for tumor model L1210 Leukemia (intraperitoneal) in CD2F1 (CDF1) mice
Details: endpoint: mean survival time, higher = longer survival
Outline: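 Activity against a transplanted murine tumor was judged by comparing the compound group with a vehicle group. The outcome in the treated animals was divided by that in the controls.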

[1] = dose: 100.0 mg/kg/injection, schedule: Q04DX003 (ip), vehicle: saline with Tween-80
[2] = dose: 200.0 mg/kg/injection, schedule: Q04DX003 (ip), vehicle: saline with Tween-80
[3] = dose: 100.0 mg/kg/injection, schedule: Q01DX009 (ip), vehicle: saline with Tween-80
[4] = dose: 200.0 mg/kg/injection, schedule: Q01DX009 (ip), vehicle: saline with Tween-80
[5] = dose: 50.0 mg/kg/injection, schedule: Q01DX009 (ip), vehicle: saline with Tween-80
[6] = dose: 100.0 mg/kg/injection, schedule: Q04DX002 (ip), vehicle: saline with Tween-80
[7] = dose: 400.0 mg/kg/injection, schedule: Q04DX002 (ip), vehicle: saline with Tween-80
[8] = dose: 200.0 mg/kg/injection, schedule: Q04DX002 (ip), vehicle: saline with Tween-80

C[C@]12CC[C@H]3[C@@H](CCC4=C[C@@H](OC5OCC(OC6OC(CO)C(O)C(O)C6O)C(O)C5O)CC[C@@]43C=O)[C@@]1(O)CCC2C1=CC(=O)OC1 (stereo partly specified)
T/C (dose: 0.16 mg/kg/injection, schedule: Q01DX009 (ip), vehicle: Klucel (hydroxypropylcellulose) (HPC)): 101 % of control | T/C (dose: 0.31 mg/kg/injection, schedule: Q01DX009 (ip), vehicle: Klucel (hydroxypropylcellulose) (HPC)): 101 % of control | T/C (dose: 0.62 mg/kg/injection, schedule: Q01DX009 (ip), vehicle: Klucel (hydroxypropylcellulose) (HPC)): 98 % of control | T/C (dose: 0.63 mg/kg/injection, schedule: Q01DX009 (ip), vehicle: Klucel (hydroxypropylcellulose) (HPC)): 102 % of control | T/C (dose: 1.25 mg/kg/injection, schedule: Q01DX009 (ip), vehicle: Klucel (hydroxypropylcellulose) (HPC)): 98 % of control and 107 % of control | T/C (dose: 2.5 mg/kg/injection, schedule: Q01DX009 (ip), vehicle: Klucel (hydroxypropylcellulose) (HPC)): 93 % of control and 95 % of control | T/C (dose: 5.0 mg/kg/injection, schedule: Q01DX009 (ip), vehicle: Klucel (hydroxypropylcellulose) (HPC)): 102 % of control | T/C (dose: 10.0 mg/kg/injection, schedule: Q01DX009 (ip), vehicle: Klucel (hydroxypropylcellulose) (HPC)): 108 % of control | T/C (dose: 20.0 mg/kg/injection, schedule: Q01DX009 (ip), vehicle: Klucel (hydroxypropylcellulose) (HPC)): 113 % of control | T/C (dose: 156.0 micrograms/kg/injection, schedule: Q01DX009 (ip), vehicle: Klucel (hydroxypropylcellulose) (HPC)): 104 % of control | T/C (dose: 312.0 micrograms/kg/injection, schedule: Q01DX009 (ip), vehicle: Klucel (hydroxypropylcellulose) (HPC)): 110 % of control | T/C (dose: 625.0 micrograms/kg/injection, schedule: Q01DX009 (ip), vehicle: Klucel (hydroxypropylcellulose) (HPC)): 100 % of control | T/C (dose: 1250.0 micrograms/kg/injection, schedule: Q01DX009 (ip), vehicle: Klucel (hydroxypropylcellulose) (HPC)): 92 % of control | T/C (dose: 2500.0 micrograms/kg/injection, schedule: Q01DX009 (ip), vehicle: Klucel (hydroxypropylcellulose) (HPC)): 101 % of control | T/C (dose: 5000.0 micrograms/kg/injection, schedule: Q01DX009 (ip), vehicle: Klucel (hydroxypropylcellulose) (HPC)): 101 % of control

CC(Br)C(=O)OCc1ccccc1 (stereo unspecified)
T/C [1]: 95 % of control | T/C [2]: 95 % of control | T/C (dose: 400.0 mg/kg/injection, schedule: Q04DX003 (ip), vehicle: saline with Tween-80): 95 % of control

Clc1ccc(NC(Nc2ccc(Cl)cc2Cl)C(Cl)(Cl)Cl)c(Cl)c1
T/C [3]: 101 % of control | T/C [4]: 106 % of control | T/C (dose: 400.0 mg/kg/injection, schedule: Q01DX009 (ip), vehicle: saline with Tween-80): 95 % of control

[Cl][Pt+2]([Cl])([Cl])[Cl].[NH-]C1CCCCC1.[NH-]C1CCCCC1
T/C (dose: 12.5 mg/kg/injection, schedule: Q01DX009 (ip), vehicle: saline with Tween-80): 96 % of control | T/C (dose: 25.0 mg/kg/injection, schedule: Q01DX009 (ip), vehicle: saline with Tween-80): 91 % of control | T/C [5]: 100 % of control | T/C [3]: 89 % of control

CC(C)(C)OC(=O)NN=C1CCC(C(C)(C)C)CC1 (stereo unspecified)
T/C (dose: 100.0 mg/kg/injection, schedule: Q01DX009 (ip), vehicle: saline): 93 % of control | T/C (dose: 200.0 mg/kg/injection, schedule: Q01DX009 (ip), vehicle: saline): 91 % of control | T/C (dose: 400.0 mg/kg/injection, schedule: Q01DX009 (ip), vehicle: saline): 98 % of control

CCCCCCCCCOc1ccc(Cl)cc1
T/C (dose: 25.0 mg/kg/injection, schedule: Q04DX002 (ip), vehicle: saline with Tween-80): 95 % of control | T/C (dose: 50.0 mg/kg/injection, schedule: Q04DX002 (ip), vehicle: saline with Tween-80): 100 % of control | T/C [6]: 90 % of control and 95 % of control | T/C [7]: 93 % of control

COc1ccccc1NC(=O)Oc1cccc(C)c1
T/C [6]: 91 % of control | T/C [8]: 88 % of control | T/C [7]: 91 % of control

c1ccc(N/N=C(/N=Nc2ccc(-c3ccc(N=N/C(=N/Nc4ccccc4)c4ccccc4)cc3)cc2)c2ccccc2)cc1
T/C [5]: 97 % of control | T/C [3]: 97 % of control | T/C [4]: 102 % of control

N#Cc1c(F)c(F)c(Oc2c(F)c(F)c(F)c(F)c2F)c(F)c1F
T/C [1]: 94 % of control | T/C [2]: 91 % of control

C/C=C(\C)c1cc(=O)c2c(C)cc3c(c2o1)C(OC)(OC(C)=O)c1c(O)c(C2CC(C)(N(C)C)C(OC(C)=O)C(C)O2)cc(C2CC(N(C)C)C(OC(C)=O)C(C)O2)c1C3=O (stereo unspecified)
T/C (dose: 50.0 mg/kg/injection, schedule: Q04DX003 (ip), vehicle: saline with Tween-80): 112 % of control | T/C [1]: 110 % of control | T/C (dose: 100.0 mg/kg/injection, schedule: Q04DX003 (ip), vehicle: saline): 109 % of control | T/C [2]: 97 % of control | T/C (dose: 200.0 mg/kg/injection, schedule: Q04DX003 (ip), vehicle: saline): 91 % of control

Cc1cc(=O)[nH]c(-n2nc(N)nc2N)n1
T/C (dose: 75.0 mg/kg/injection, schedule: Q01DX001 (ip), vehicle: saline): 107 % of control | T/C (dose: 150.0 mg/kg/injection, schedule: Q01DX001 (ip), vehicle: saline): 101 % of control | T/C (dose: 300.0 mg/kg/injection, schedule: Q01DX001 (ip), vehicle: saline): 101 % of control

CCCC/C=C/C(=O)OCC
T/C [5]: 91 % of control and 96 % of control | T/C [3]: 103 % of control and 101 % of control | T/C [4]: 103 % of control and 101 % of control

O=C(O)COc1ccc(F)cc1Br
T/C [6]: 93 % of control | T/C [8]: 93 % of control | T/C [7]: 93 % of control

COc1ccc(-c2nc3ccccc3nc2-c2ccc(OC)cc2)cc1
T/C [1]: 94 % of control | T/C [2]: 94 % of control

N/C(=N\Cl)C(Cl)(Cl)Cl
T/C (dose: 12.5 mg/kg/injection, schedule: Q01DX009 (ip), vehicle: saline): 105 % of control | T/C (dose: 25.0 mg/kg/injection, schedule: Q01DX009 (ip), vehicle: saline): 103 % of control | T/C (dose: 50.0 mg/kg/injection, schedule: Q01DX009 (ip), vehicle: saline): 109 % of control

O=C(c1ccccc1)C(Br)C(Br)c1ccc([N+](=O)[O-])cc1 (stereo unspecified)
T/C [6]: 89 % of control | T/C [8]: 101 % of control | T/C [7]: 101 % of control

Cc1c(O)c2c(c(O)c1Cc1cccc(C#N)c1)C(=O)c1ccccc1C2=O
T/C (dose: 12.5 mg/kg/injection, schedule: Q01DX009 (ip), vehicle: Klucel (hydroxypropylcellulose) (HPC)): 89 % of control | T/C (dose: 25.0 mg/kg/injection, schedule: Q01DX009 (ip), vehicle: Klucel (hydroxypropylcellulose) (HPC)): 90 % of control | T/C (dose: 50.0 mg/kg/injection, schedule: Q01DX009 (ip), vehicle: Klucel (hydroxypropylcellulose) (HPC)): 90 % of control | T/C (dose: 200.0 mg/kg/injection, schedule: Q01DX009 (ip), vehicle: Klucel (hydroxypropylcellulose) (HPC)): 89 % of control

CCCCCC(C)SC#N (stereo unspecified)
T/C [3]: 97 % of control

COc1cccc2c1C(=O)c1c(O)c3c(c(O)c1C2=O)C[C@H](O)C[C@@H]3OC1CC(N)C(O)C(C)O1 (stereo partly specified)
T/C (dose: 0.75 mg/kg/injection, schedule: Q01DX009 (ip), vehicle: saline): 107 % of control | T/C (dose: 1.5 mg/kg/injection, schedule: Q01DX009 (ip), vehicle: saline): 105 % of control | T/C (dose: 3.0 mg/kg/injection, schedule: Q01DX009 (ip), vehicle: saline): 111 % of control | T/C (dose: 3.0 mg/kg/injection, schedule: Q01DX009 (ip), vehicle: water): 121 % of control | T/C (dose: 6.0 mg/kg/injection, schedule: Q01DX009 (ip), vehicle: saline): 104 % of control | T/C (dose: 12.0 mg/kg/injection, schedule: Q01DX009 (ip), vehicle: saline): 115 % of control | T/C (dose: 12.0 mg/kg/injection, schedule: Q01DX009 (ip), vehicle: water): 118 % of control | T/C (dose: 24.0 mg/kg/injection, schedule: Q01DX009 (ip), vehicle: water): 152 % of control

CN1CCC(C#N)(c2ccccn2)CC1
T/C (dose: 5.0 mg/kg/injection, schedule: Q01DX009 (ip), vehicle: saline with Tween-80): 95 % of control | T/C (dose: 5.0 mg/kg/injection, schedule: Q01DX009 (ip), vehicle: saline): 103 % of control | T/C (dose: 10.0 mg/kg/injection, schedule: Q01DX009 (ip), vehicle: saline with Tween-80): 91 % of control | T/C (dose: 10.0 mg/kg/injection, schedule: Q01DX009 (ip), vehicle: saline): 106 % of control | T/C (dose: 20.0 mg/kg/injection, schedule: Q01DX009 (ip), vehicle: saline): 97 % of control

O=C1C(Cl)=C(Nc2nc3ccccc3s2)C(=O)c2ccccc21
T/C (dose: 25.0 mg/kg/injection, schedule: Q01DX001 (ip), vehicle: Klucel (hydroxypropylcellulose) (HPC)): 102 % of control | T/C (dose: 50.0 mg/kg/injection, schedule: Q01DX001 (ip), vehicle: Klucel (hydroxypropylcellulose) (HPC)): 96 % of control | T/C (dose: 100.0 mg/kg/injection, schedule: Q01DX001 (ip), vehicle: Klucel (hydroxypropylcellulose) (HPC)): 98 % of control

CS(=O)(=O)/C(C#N)=N/O
T/C (dose: 50.0 mg/kg/injection, schedule: Q01DX001 (ip), vehicle: saline): 103 % of control | T/C (dose: 100.0 mg/kg/injection, schedule: Q01DX001 (ip), vehicle: saline): 98 % of control | T/C (dose: 200.0 mg/kg/injection, schedule: Q01DX001 (ip), vehicle: saline): 101 % of control
